Key:
[1] = tested on: SAGPY (Arrowhead (Pygmaea)); assay: Postemergence weed control under flooded paddy conditions; assay type: in vivo, Sagittaria pygmaea; conditions: postemergence weeds, 3-4 weeks after treatment
Summary of the method: (§1)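 Herbicidal effect is judged by eye on a 0–9 scale versus control, 3–4 weeks after dosing. Dosing is into flood water kept 1.5–3 cm over the soil, at about 0.0313–0.500 kg/ha in aqueous/acetone 50/50 v/v, on 3–5 cm weeds and 1.5–2.5-leaf rice seedlings.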

[2] = tested on: ORYSAT (Rice, Tebonnet); assay: Rice tolerance to post-transplant applications, flooded paddy conditions (Table IV); assay type: in vivo, Oryza sativa, (L.) Tebonnet
Summary of the method: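 Flood-water application, about 0.0313–0.500 kg/ha a.i. in aqueous/acetone 50/50 v/v; water depth 1.5–3 cm throughout. Weeds 3–5 cm, rice 1.5–2.5 leaf. Greenhouse; 0–9 visual rating vs control at 3–4 wk.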

[3] = tested on: ZEAMX (Corn, Field); assay: Postemergence herbicidal evaluation; assay type: in vivo, Zea mays; conditions: for ZEAMX herbicidal rating: postemergence
Summary of the method: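 Two-week seedlings sprayed postemergence at 40 psi; formulation: 1:1 acetone/water, 0.5% TWEEN 20; application ≈0.0156–0.500 kg/ha. Greenhouse grow-out, then 0–9 visual scoring at 4–5 weeks.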

[4] = tested on: AMBEL (Ragweed, Common); assay: Preemergence herbicidal evaluation; assay type: in vivo, Ambrosia artemisifolia; conditions: rated 4-5 weeks after treatment
Summary of the method: (§2)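 Visual 0-9 rating vs control (stand, vigor, malformation, size, chlorosis, overall appearance), scored 4-5 wk after spraying. Seeded soil cups were treated preemergence with compound in aqueous acetone, ~0.0156-0.500 kg/ha equivalent.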

[5] = tested on: GLXMAW (Soybean, Williams); assay: Preemergence herbicidal evaluation; assay type: in vivo, Glycine max, (L.) Merr. cv Williams; conditions: rated 4-5 weeks after treatment
Summary of the method: as §2

[6] = tested on: ORYSAT (Rice, Tebonnet); assay: Rice tolerance to post-transplant applications, flooded paddy conditions (Table III); assay type: in vivo, Oryza sativa, (L.) Tebonnet
Summary of the method: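 Injury scored 0-9 by eye against untreated control, judging stand, vigor, malformation, size and chlorosis, three to four weeks after treatment. Compound in 50/50 aqueous/acetone, about 0.0313 to 0.500 kg/ha, was applied to paddy water (1.5 to 3 cm depth) three days after transplanting paired ten-day-old Tebonnet rice seedlings.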

[7] = tested on: ABUTH (Velvetleaf); assay: Preemergence herbicidal evaluation; assay type: in vivo, Abutilon theophrasti; conditions: rated 4-5 weeks after treatment
Summary of the method: as §2

[8] = tested on: MOOVA (Monochoria); assay: Postemergence weed control under flooded paddy conditions; assay type: in vivo, Monochoria vaginalis; conditions: postemergence weeds, 3-4 weeks after treatment
Summary of the method: as §1

[9] = rate 0.0313 kg/ha, flooded paddy, post-transplant rice, 3-4 weeks after treatment
[10] = rate 0.0625 kg/ha, flooded paddy, post-transplant rice, 3-4 weeks after treatment
[11] = rate 0.1250 kg/ha, flooded paddy, post-transplant rice, 3-4 weeks after treatment
[12] = rate 0.2500 kg/ha, flooded paddy, post-transplant rice, 3-4 weeks after treatment
[13] = 0.0313 kg/ha, post-transplant rice, flooded paddy, rated 3-4 weeks after treatment
[14] = 0.0625 kg/ha, post-transplant rice, flooded paddy, rated 3-4 weeks after treatment
[15] = 0.1250 kg/ha, post-transplant rice, flooded paddy, rated 3-4 weeks after treatment
[16] = 0.2500 kg/ha, post-transplant rice, flooded paddy, rated 3-4 weeks after treatment

SMILES | Herbicidal rating SAGPY ([1]; rate 0.1250 kg/ha) | Herbicidal rating SAGPY ([1]; rate 0.2500 kg/ha) | Herbicidal rating ORYSAT (rice tolerance) ([2]; in vivo) | Postemergence herbicidal rating ZEAMX ([3]; Rate 0.0158 kg/ha) | Postemergence herbicidal rating ZEAMX ([3]; Rate 0.0315 kg/ha) | Postemergence herbicidal rating ZEAMX ([3]; Rate 0.0630 kg/ha) | Preemergence herbicidal rating AMBEL ([4]; rate 0.0313 kg/ha) | Preemergence herbicidal rating AMBEL ([4]; rate 0.0625 kg/ha) | Preemergence herbicidal rating AMBEL ([4]; rate 0.1250 kg/ha) | Preemergence herbicidal rating AMBEL ([4]; rate 0.2500 kg/ha) | Preemergence herbicidal rating GLXMAW ([5]; rate 0.0313 kg/ha) | Preemergence herbicidal rating GLXMAW ([5]; rate 0.0625 kg/ha) | Preemergence herbicidal rating GLXMAW ([5]; rate 0.1250 kg/ha) | Preemergence herbicidal rating GLXMAW ([5]; rate 0.2500 kg/ha) | Preemergence herbicidal rating ABUTH ([7]; rate 0.0313 kg/ha) | Preemergence herbicidal rating ABUTH ([7]; rate 0.0625 kg/ha) | Preemergence herbicidal rating ABUTH ([7]; rate 0.1250 kg/ha) | Preemergence herbicidal rating ABUTH ([7]; rate 0.2500 kg/ha) | Herbicidal rating MOOVA ([8]; rate 0.1250 kg/ha) | Herbicidal rating MOOVA ([8]; rate 0.2500 kg/ha) | other results
Cn1c(C(F)(F)F)cc(=O)n(-c2cc(N=C3SCC(=O)N3CCC(=O)O)c(Cl)cc2F)c1=O [Compound 30, 2-{{2-Chloro-5-[3,6-dihydro-3-methyl-2,6-dioxo-4-(trifluoromethyl)-1(2H)-pyrimidinyl]-4-fluorophenyl}imino}-4-oxo-3-thiazolidinepropionic acid] | 0.0 | 2.0 | 0.0 | 3.0 | 4.5 | 6.0 | 0.0 | 1.0 | 5.0 | 6.0 | 2.0 | 3.0 | 1.0 | 4.0 | 9.0 | 9.0 | 9.0 | 9.0 | 1.5 | 4.5 | Herbicidal rating ORYSAT (rice tolerance) ([6]; in vivo): 0.0
CCOC(=O)CN1C(=O)C(=Cc2ccc(F)cc2)SC1=Nc1cc(-n2c(=O)cc(C(F)(F)F)n(C)c2=O)c(F)cc1Cl [Compound 21, Ethyl 2-{{2-chloro-5-[3,6-dihydro-3-methyl-2,6-dioxo-4-(trifluoromethyl)-1(2H)-pyrimidinyl]-4-fluorophenyl}imino}-5-(p-fluorobenzylidene)-4-oxo-3-thiazolidineacetate] |  |  | 0.0 |  |  |  |  |  |  |  |  |  |  |  |  |  |  |  |  |  | Herbicidal rating SAGPY ([1]; rate 0.1160 kg/ha): 0.0; Herbicidal rating SAGPY ([1]; rate 0.2310 kg/ha): 0.0; Herbicidal rating SAGPY ([1]; rate 0.4630 kg/ha): 0.0; ZEAMX herbicidal rating ([3]; rate 0.0158 kg/ha): 4.0; ZEAMX herbicidal rating ([3]; rate 0.0315 kg/ha): 4.0; ZEAMX herbicidal rating ([3]; rate 0.0630 kg/ha): 4.5; AMBEL preemergence herbicidal rating ([4]; rate 0.2500 kg/ha): 0.0; GLXMAW preemergence herbicidal rating ([5]; rate 0.2500 kg/ha): 0.0; Herbicidal rating ORYSAT (rice tolerance) ([6]; in vivo): 0.0; ABUTH preemergence herbicidal rating ([7]; rate 0.2500 kg/ha): 2.0; Herbicidal rating MOOVA ([8]; rate 0.1160 kg/ha): 0.0; Herbicidal rating MOOVA ([8]; rate 0.2310 kg/ha): 0.0; Herbicidal rating MOOVA ([8]; rate 0.4630 kg/ha): 0.0
CCOC(=O)COc1ccccc1CC1S/C(=N/c2cc(-n3c(=O)cc(C(F)(F)F)n(C)c3=O)c(F)cc2Cl)N(CC(=O)OCC)C1=O (stereo not shown) [Compound 42, 2-{{2-Chloro-5-[3,6-dihydro-3-methyl-2,6-dioxo-4-(trifluoromethyl)-1(2H)-pyrimidinyl]-4-fluoro-phenyl}imino}-5-(o-hydroxybenzyl)-4-oxo-3-thiazolidineacetic acid, ethyl ester, ester with ethyl glycolate] | 0.0 | 3.0 |  | 4.5 | 4.5 | 4.5 | 0.0 | 0.0 | 0.0 | 6.0 | 0.0 | 0.0 | 1.0 | 1.0 | 1.0 | 1.0 | 9.0 | 9.0 | 9.0 | 9.0 | Herbicidal rating SAGPY ([1]; rate 0.0313 kg/ha): 0.0; Herbicidal rating SAGPY ([1]; rate 0.0625 kg/ha): 0.0; Herbicidal rating ORYSAT (rice tolerance) [2, 9]: 0.0; Herbicidal rating ORYSAT (rice tolerance) [2, 10]: 0.0; Herbicidal rating ORYSAT (rice tolerance) [2, 11]: 0.0; Herbicidal rating ORYSAT (rice tolerance) [2, 12]: 0.0; Herbicidal rating ORYSAT (rice tolerance) [6, 13]: 0.0; Herbicidal rating ORYSAT (rice tolerance) [6, 14]: 0.0; Herbicidal rating ORYSAT (rice tolerance) [6, 15]: 0.0; Herbicidal rating ORYSAT (rice tolerance) [6, 16]: 0.0; Herbicidal rating MOOVA ([8]; rate 0.0313 kg/ha): 7.0; Herbicidal rating MOOVA ([8]; rate 0.0625 kg/ha): 9.0
CCOC(=O)CN1C(=O)C[S+]([O-])/C1=N/c1cc(-n2c(=O)cc(C(F)(F)F)n(C)c2=O)c(F)cc1Cl (stereo not shown) [Compound 45, 2-{{2-Chloro-5-[3,6-dihydro-3-methyl-2,6-dioxo-4-(trifluoromethyl)-1(2H)-pyrimidinyl]-4-fluoro-phenyl}imino}-4-oxo-3-thiazolidineacetic acid, ethyl ester, 1-oxide] | 0.0 | 4.0 |  |  |  |  | 0.0 | 0.0 | 0.0 | 2.0 | 0.0 | 0.0 | 0.0 | 3.0 | 9.0 | 9.0 | 9.0 | 9.0 | 9.0 | 9.0 | Herbicidal rating SAGPY ([1]; rate 0.0313 kg/ha): 0.0; Herbicidal rating SAGPY ([1]; rate 0.0625 kg/ha): 0.0; Herbicidal rating ORYSAT (rice tolerance) [2, 9]: 3.0; Herbicidal rating ORYSAT (rice tolerance) [2, 10]: 2.0; Herbicidal rating ORYSAT (rice tolerance) [2, 11]: 2.0; Herbicidal rating ORYSAT (rice tolerance) [2, 12]: 3.0; Postemergence herbicidal rating ZEAMX ([3]; Rate 0.0156 kg/ha): 4.5; Postemergence herbicidal rating ZEAMX ([3]; Rate 0.0313 kg/ha): 5.0; Postemergence herbicidal rating ZEAMX ([3]; Rate 0.0625 kg/ha): 5.5; Preemergence herbicidal rating AMBEL ([4]; rate 0.0156 kg/ha): 0.0; Preemergence herbicidal rating GLXMAW ([5]; rate 0.0156 kg/ha): 0.0; Herbicidal rating ORYSAT (rice tolerance) [6, 13]: 3.0; Herbicidal rating ORYSAT (rice tolerance) [6, 14]: 2.0; Herbicidal rating ORYSAT (rice tolerance) [6, 15]: 2.0; Herbicidal rating ORYSAT (rice tolerance) [6, 16]: 3.0; Preemergence herbicidal rating ABUTH ([7]; rate 0.0156 kg/ha): 0.0; Herbicidal rating MOOVA ([8]; rate 0.0313 kg/ha): 7.0; Herbicidal rating MOOVA ([8]; rate 0.0625 kg/ha): 7.0

Reference: patent US20020137929A1, “1 - (3-heterocyclylphenyl) isothiourea, -isourea, -guanidine and -amidine herbicidal agents” (Intellectual Property Department, BASF Aktiengesellschaft, priority 1998, published 2002)
